From patent US20080085884A1, “Melanin Concentrating Hormone Receptor-1 Antagonist Pyridinones” (Pfizer Inc, priority 2006, published 2008) come the findings set out here.

T1 sequence (Q99705 whole entry): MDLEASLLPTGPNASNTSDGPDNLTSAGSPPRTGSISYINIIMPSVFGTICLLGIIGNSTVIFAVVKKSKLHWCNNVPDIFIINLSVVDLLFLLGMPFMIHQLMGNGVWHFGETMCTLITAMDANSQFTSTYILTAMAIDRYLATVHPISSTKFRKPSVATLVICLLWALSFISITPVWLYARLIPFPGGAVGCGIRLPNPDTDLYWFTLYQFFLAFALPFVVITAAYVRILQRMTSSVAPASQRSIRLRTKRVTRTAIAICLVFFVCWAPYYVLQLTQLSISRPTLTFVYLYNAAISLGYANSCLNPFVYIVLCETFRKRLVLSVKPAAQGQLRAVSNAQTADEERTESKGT

The assay has as its target T1, human MCHR1 (Homo sapiens, UniProt Q99705).
T1 construct: host or cells: CHO
The assay is described as follows: Cyclic AMP assay (MCHR-1 functional antagonism). The assay is classed as cell-based. To be noted: CHO cells stably expressing human MCHR1; cAMP accumulation with 25 uM forskolin and 0.2 nM MCH, 90 min; Ki from IC50 by Cheng-Prusoff; read-out: MCHR-1 functional Ki. As to the method: CHO cell lines stably expressing the human MCHR1 (Euroscreen, Brussels, Belgium) were maintained in DMEM containing Glutamax (Invitrogen, Carlsbad, Calif.), 10% FBS, 400 ug/ml Geneticin.
Cyclic AMP assays. CHO cells stably expressing the human MCHR1 receptors were collected and resuspended at a density of 4.0×10^6 cells/ml in F12 (Hams) media and seeded (20,000 cells per well) into 384-well, solid white Greiner assay plates. […] Cells were incubated at 37° C./5% CO2 for 90 minutes and cAMP accumulation subsequently determined by DiscoveRx Hithunter c-AMP II Assay kit (GE Healthcare, Buckinghamshire, UK) in accordance with manufactures instructions. Luminescence was measured on a LEADseaker imaging system (GE Healthcare, Buckinghamshire, UK). IC50 values were calculated from dose-response data fit using an in-house computer graphics and statistics program.
A general note: Changes in cAMP serve as a functional read-out for many G protein-coupled receptors.
Broadly, the Ki is the equilibrium dissociation constant of an inhibitor or competing ligand from its target. For the molecule `CN(C)C(=O)C1CCN(c2ccc(-n3ccc(OCc4ccccc4)cc3=O)cn2)C1` (racemic) [Example 25, 1-[4-(Benzyloxy)-2-oxo-2H-1,3′-bipyridin-6′-yl]-N,N-dimethylpyrrolidine-3-carboxamide], the Ki stood at 80.9 nM. In the case of `CC1(N)CCN(c2ccc(-n3ccc(OCc4ccccc4)cc3=O)cn2)C1` (single isomer, unassigned) [Example 17a, 6′-(3-Amino-3-methylpyrrolidin-1-yl)-4-(benzyloxy)-2H-1,3′-bipyridin-2-one], the Ki was 15.3 nM. With `CC1(N)CCN(c2ccc(-n3ccc(OCc4ccccc4)cc3=O)cn2)C1` (single isomer, unassigned) [Example 17b, 6′-(3-Amino-3-methylpyrrolidin-1-yl)-4-(benzyloxy)-2H-1,3′-bipyridin-2-one], the Ki was found to be 38.1 nM. Consider `CNC1(C)CCN(c2ccc(-n3ccc(OCc4ccccc4)cc3=O)cn2)C1` (single isomer, unassigned) [Example 18a, 4-(Benzyloxy)-6′-[3-methyl-3-(methylamino)pyrrolidin-1-yl]-2H-1,3′-bipyridin-2-one], for which the Ki turned out to be 8.86 nM. In the case of `CNC1(C)CCN(c2ccc(-n3ccc(OCc4ccccc4)cc3=O)cn2)C1` (single isomer, unassigned) [Example 18b, 4-(Benzyloxy)-6′-[3-methyl-3-(methylamino)pyrrolidin-1-yl]-2H-1,3′-bipyridin-2-one], the Ki turned out to be 18.3 nM. Regarding `CN(C)C(=O)C1CCN(c2ccc(-n3ccc(OCc4ccccc4)cc3=O)cn2)C1` (single isomer, unassigned) [Example 25a, 1-[4-(Benzyloxy)-2-oxo-2H-1,3′-bipyridin-6′-yl]-N,N-dimethylpyrrolidine-3-carboxamide], the Ki was determined as 71.1 nM. On to `CN(C)C(=O)C1CCN(c2ccc(-n3ccc(OCc4ccccc4)cc3=O)cn2)C1` (single isomer, unassigned) [Example 25b, 1-[4-(Benzyloxy)-2-oxo-2H-1,3′-bipyridin-6′-yl]-N,N-dimethylpyrrolidine-3-carboxamide], for which the Ki was 69.6 nM.

On to `CC(=O)N1CCN(c2ccc(-n3ccc(OCc4ccccc4)cc3=O)cn2)CC1` [Example 1, 6′-(4-Acetylpiperazin-1-yl)-4-(benzyloxy)-2H-1,3′-bipyridin-2-one], for which the Ki is 47.7 nM. As to `O=c1cc(OCc2ccccc2)ccn1-c1ccc(N2CCNCC2)nc1` [Example 2, 4-(Benzyloxy)-6′-piperazin-1-yl-2H-1,3′-bipyridin-2-one], the Ki was 89.9 nM. Regarding `CN1C[C@@H]2CN(c3ccc(-n4ccc(OCc5ccccc5)cc4=O)cn3)C[C@@H]2C1` [Example 3, 4-(Benzyloxy)-6′-[(3aR,6aS)-5-methylhexahydropyrrolo[3,4-c]pyrrol-2(1H)-yl]-2H-1,3′-bipyridin-2-one], the Ki is 10.1 nM. For `CC(C)(C)OC(=O)N1C[C@@H]2CN(c3ccc(-n4ccc(OCc5ccccc5)cc4=O)cn3)C[C@@H]2C1` [Example 4, tert-Butyl (3aR,6aS)-5-[4-(benzyloxy)-2-oxo-2H-1,3′-bipyridin-6′-yl]hexahydropyrrolo[3,4-c]pyrrole-2(1H)-carboxylate], the inhibition constant Ki worked out at 1950 nM. Consider `CN(C)C1CCN(c2ccc(-n3ccc(OCc4ccccc4)cc3=O)cn2)CC1` [Example 5, 4-(Benzyloxy)-6′-[4-(dimethylamino)piperidin-1-yl]-2H-1,3′-bipyridin-2-one], for which the Ki turned out to be 111 nM. Consider `CN1CCN(c2ccc(-n3ccc(OCc4ccccc4)cc3=O)cn2)CC1` [Example 6, 4-(Benzyloxy)-6′-(4-methylpiperazin-1-yl)-2H-1,3′-bipyridin-2-one], for which the Ki is 163 nM. In the case of `CCN1CCN(c2ccc(-n3ccc(OCc4ccccc4)cc3=O)cn2)CC1` [Example 7, 4-(Benzyloxy)-6′-(4-ethylpiperazin-1-yl)-2H-1,3′-bipyridin-2-one], the Ki is 87.1 nM.
